# Columns and labels:
# RKOE6 = assay: OncoPanel cell proliferation assay, RKOE6; conditions: for EC50 / GI50 / IC50: Homo sapiens; for EC50: RKOE6, read-out: Cell Count EC50; for GI50: RKOE6, read-out: Cell Count GI50; for IC50: RKOE6, read-out: Cell Count IC50; for Cell Count Activity Area: RKOE6
# Procedure: (§1) Cells were seeded into 384-well plates and incubated in a humidified atmosphere of 5% CO2 at 37° C. Compounds were added the day following cell seeding. At the same time, a time zero untreated cell plate was generated. After a 3-day incubation period, cells were fixed and stained to allow fluorescence imaging of nuclei. Compounds (1 mM stock solutions) were serially diluted in half-log steps from the highest test concentration (1 micromol), and assayed over 10 concentrations with a maximum assay concentration of 0.1% DMSO. Automated fluorescence microscopy was carried out using a Molecular Devices ImageXpress Micro XL high-content imager, and images were collected with a 4× objective. 16-bit TIFF images were acquired and analyzed with MetaXpress 5.1.0.41 software.
# (§2) Cell proliferation was measured by the fluorescence intensity of an incorporated nuclear dye. The output is referred to as the relative cell count, where the measured nuclear intensity is transformed to percent of control (POC) using the following formula:
# (§3) Cellular response parameters were calculated using nonlinear regression to a sigmoidal single-site dose response model:
# (§4) GI50 is the concentration needed to reduce the observed growth by half (midway between the curve maximum and the time zero value). […] In rare instances, values <0 or >10 may be observed. […] Curve-fitting, calculations, and report generation was performed using a custom data reduction engine and MathIQ based software (AIM).
# SK-UT-1 = assay: OncoPanel cell proliferation assay, SK-UT-1; conditions: for EC50: SK-UT-1, read-out: Cell Count EC50; for GI50: SK-UT-1, read-out: Cell Count GI50; for Cell Count Activity Area: SK-UT-1
# Procedure: as §1, §2, §3, §4
"IC50 (SK-UT-1; Homo sapiens, SK-UT-1, read-out: Cell Count IC50) [nM]",Compound,EC50 (RKOE6) [nM],GI50 (RKOE6) [nM],IC50 (RKOE6) [nM],Cell Count Activity Area (RKOE6),EC50 (SK-UT-1; Homo sapiens) [nM],GI50 (SK-UT-1; Homo sapiens) [nM],Cell Count Activity Area (SK-UT-1)
> 1000,"CO[C@H]1C[C@@H]2CC[C@@H](C)[C@@](O)(O2)C(=O)C(=O)N2CCCC[C@H]2C(=O)O[C@H]([C@H](C)C[C@@H]2CC[C@@H](O)[C@H](OC)C2)CC(=O)[C@H](C)/C=C(\C)[C@@H](O)[C@@H](OC)C(=O)[C@H](C)C[C@H](C)/C=C/C=C/C=C/1C [Rapamycin, reference compound]",0.0835,0.356,1.06,4.61,0.2,> 1000,3.23
,"CN[C@@H]1C[C@H]2O[C@@](C)([C@@H]1OC)n1c3ccccc3c3c4c(c5c6ccccc6n2c5c31)C(=O)NC4 [Staurosporine, reference compound]",16.8,13.2,17.9,3.96,21.8,19.5,3.46
